# Assay results from ChEMBL document CHEMBL5154755, “Discovery of Novel Indazoles as Potent and Selective PI3Kδ Inhibitors with High Efficacy for Treatment of Hepatocellular Carcinoma” (J Med Chem, 2022).
# Activity calls are given as the source filed them. The rule behind the calls is not given here.
# Test system: Bel-7402
# Assay: Induction of apoptosis in human Bel-7402 cells assessed as decrease in EGf dependent Akt phosphorylation at threonine 308 residue at 0.3 to 10 uM measured after 24 hrs by western blotting analysis
# Assay type: functional, cell-based
# Conditions: dose 0.3-10 µM, DDE = dose-dependent effect
row,SMILES,Activity
1,C[C@H](Nc1nc(N)nc(N)c1C#N)c1nn(-c2cccnc2)c2cc(Cl)ccc12,Dde

# Target: Phosphatidylinositol 4,5-bisphosphate 3-kinase catalytic subunit beta isoform (Homo sapiens, UniProt P42338)
# Assay: Inhibition of PI3Kbeta (unknown origin) using PIP2 as substrate incubated for 1 hr in presence of ATP by ADP-Glo assay
# Conditions: not given
# Sequence of Phosphatidylinositol 4,5-bisphosphate 3-kinase catalytic subunit beta isoform (P42338 whole entry, canonical isoform): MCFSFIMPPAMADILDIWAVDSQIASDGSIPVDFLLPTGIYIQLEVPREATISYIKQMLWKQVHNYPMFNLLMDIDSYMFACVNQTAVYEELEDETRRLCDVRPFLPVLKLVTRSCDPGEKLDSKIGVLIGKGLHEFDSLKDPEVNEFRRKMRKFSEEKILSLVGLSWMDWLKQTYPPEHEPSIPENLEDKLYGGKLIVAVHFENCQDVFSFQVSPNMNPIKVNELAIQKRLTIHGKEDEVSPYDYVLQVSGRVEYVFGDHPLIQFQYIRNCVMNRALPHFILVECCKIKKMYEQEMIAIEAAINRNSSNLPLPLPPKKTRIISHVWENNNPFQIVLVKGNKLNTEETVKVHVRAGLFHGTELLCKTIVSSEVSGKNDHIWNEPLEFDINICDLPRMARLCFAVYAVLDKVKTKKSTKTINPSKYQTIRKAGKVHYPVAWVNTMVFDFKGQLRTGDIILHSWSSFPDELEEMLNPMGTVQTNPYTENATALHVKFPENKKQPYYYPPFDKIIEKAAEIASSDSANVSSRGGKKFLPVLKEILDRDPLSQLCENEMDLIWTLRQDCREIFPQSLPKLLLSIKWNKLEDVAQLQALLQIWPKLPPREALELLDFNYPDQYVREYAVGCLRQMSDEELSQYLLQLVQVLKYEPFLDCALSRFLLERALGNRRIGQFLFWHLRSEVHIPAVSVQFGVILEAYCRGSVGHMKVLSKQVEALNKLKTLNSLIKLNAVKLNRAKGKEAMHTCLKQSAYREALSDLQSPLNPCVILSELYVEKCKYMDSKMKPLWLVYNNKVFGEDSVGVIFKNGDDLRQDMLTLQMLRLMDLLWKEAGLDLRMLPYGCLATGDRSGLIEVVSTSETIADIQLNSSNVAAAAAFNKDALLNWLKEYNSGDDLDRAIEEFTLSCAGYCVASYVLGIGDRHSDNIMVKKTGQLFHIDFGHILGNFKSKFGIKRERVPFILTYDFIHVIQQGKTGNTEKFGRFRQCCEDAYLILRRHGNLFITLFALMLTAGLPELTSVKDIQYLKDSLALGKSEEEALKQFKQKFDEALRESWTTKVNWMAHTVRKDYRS
row,IC50 [nM],SMILES
1,47,C[C@H](Nc1nc(N)nc(N)c1C#N)c1nn(-c2cccc(S(C)(=O)=O)c2)c2cc(Cl)ccc12
2,41,C[C@H](Nc1nc(N)nc(N)c1C#N)c1nn(-c2cccnc2)c2cc(Cl)ccc12

# Test system: Hep 3B2
# Assay: cells
# Conditions: Homo sapiens, Hep3B, 72 h, read-out: INH
row,SMILES,inhibition at 10 µM [%]
1,C[C@H](Nc1nc(N)nc(N)c1C#N)c1nn(-c2cccc(S(C)(=O)=O)c2)c2cc(Cl)ccc12,72

# Target: Phosphatidylinositol 4,5-bisphosphate 3-kinase catalytic subunit alpha isoform (Homo sapiens, UniProt P42336)
# Assay: Inhibition of PI3Kalpha (unknown origin) using PIP2 as substrate incubated for 1 hr in presence of ATP by ADP-Glo assay
# Conditions: not given
# Sequence of Phosphatidylinositol 4,5-bisphosphate 3-kinase catalytic subunit alpha isoform (P42336 whole entry, canonical isoform): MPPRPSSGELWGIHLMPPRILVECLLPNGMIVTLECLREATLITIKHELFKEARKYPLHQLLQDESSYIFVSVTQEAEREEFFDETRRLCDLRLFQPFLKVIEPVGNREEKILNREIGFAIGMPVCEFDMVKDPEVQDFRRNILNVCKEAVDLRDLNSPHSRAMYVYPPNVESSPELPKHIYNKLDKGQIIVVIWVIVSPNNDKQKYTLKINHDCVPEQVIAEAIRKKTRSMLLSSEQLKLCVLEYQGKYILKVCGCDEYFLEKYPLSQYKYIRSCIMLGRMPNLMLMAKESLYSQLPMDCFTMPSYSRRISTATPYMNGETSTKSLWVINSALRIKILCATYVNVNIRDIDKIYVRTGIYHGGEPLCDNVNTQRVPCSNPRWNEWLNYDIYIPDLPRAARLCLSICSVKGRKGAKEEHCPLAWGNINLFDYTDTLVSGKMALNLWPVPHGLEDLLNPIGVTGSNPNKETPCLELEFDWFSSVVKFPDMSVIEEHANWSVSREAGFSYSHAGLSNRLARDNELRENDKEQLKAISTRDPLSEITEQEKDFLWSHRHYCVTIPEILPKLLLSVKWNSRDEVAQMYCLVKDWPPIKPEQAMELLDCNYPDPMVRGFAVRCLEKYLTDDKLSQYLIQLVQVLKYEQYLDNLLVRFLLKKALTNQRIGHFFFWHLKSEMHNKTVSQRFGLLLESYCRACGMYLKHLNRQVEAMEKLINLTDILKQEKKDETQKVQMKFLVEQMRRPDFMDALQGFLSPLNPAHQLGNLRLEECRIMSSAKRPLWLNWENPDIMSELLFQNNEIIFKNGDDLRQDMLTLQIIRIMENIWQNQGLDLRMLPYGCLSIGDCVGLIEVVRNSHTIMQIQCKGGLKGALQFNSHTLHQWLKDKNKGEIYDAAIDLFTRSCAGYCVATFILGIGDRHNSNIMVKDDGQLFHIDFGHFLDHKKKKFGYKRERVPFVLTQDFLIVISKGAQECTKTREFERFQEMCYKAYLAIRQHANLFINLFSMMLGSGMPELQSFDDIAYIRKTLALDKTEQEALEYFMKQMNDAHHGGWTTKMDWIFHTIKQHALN
row,IC50 [nM],SMILES
1,> 1000,C[C@H](Nc1nc(N)nc(N)c1C#N)c1nn(-c2cccc(S(C)(=O)=O)c2)c2cc(Cl)ccc12
2,> 1000,C[C@H](Nc1nc(N)nc(N)c1C#N)c1nn(-c2cccnc2)c2cc(Cl)ccc12

# Test system: Bel-7402
# Assay: Induction of apoptosis in human Bel-7402 cells xenografted in Balb/c (nu/nu) mouse assessed as decrease in cell proliferation at 20 to 40 mg/kg, po daily after 14 days by Ki-67 staining based immunohistochemical analysis
# Assay type: functional, organism-based
# Conditions: dose 20-40 mg/kg, time 14.0 day
row,SMILES,Activity
1,C[C@H](Nc1nc(N)nc(N)c1C#N)c1nn(-c2cccnc2)c2cc(Cl)ccc12,Active

# Test system: HepG2
# Assay: Induction of apoptosis in human HepG2 cells assessed as increase in expression of cleaved caspase-3 at 1.5625 to 50 uM incubated for 24 hrs by Western blotting analysis
# Assay type: functional, cell-based
# Conditions: dose 1.5625-50 µM, DDE = dose-dependent effect
row,SMILES,Activity
1,C[C@H](Nc1nc(N)nc(N)c1C#N)c1nn(-c2cccnc2)c2cc(Cl)ccc12,Dde

# Target: T1, Phosphatidylinositol 4,5-bisphosphate 3-kinase catalytic subunit delta isoform (Homo sapiens, UniProt O00329)
# T1 sequence (O00329 whole entry): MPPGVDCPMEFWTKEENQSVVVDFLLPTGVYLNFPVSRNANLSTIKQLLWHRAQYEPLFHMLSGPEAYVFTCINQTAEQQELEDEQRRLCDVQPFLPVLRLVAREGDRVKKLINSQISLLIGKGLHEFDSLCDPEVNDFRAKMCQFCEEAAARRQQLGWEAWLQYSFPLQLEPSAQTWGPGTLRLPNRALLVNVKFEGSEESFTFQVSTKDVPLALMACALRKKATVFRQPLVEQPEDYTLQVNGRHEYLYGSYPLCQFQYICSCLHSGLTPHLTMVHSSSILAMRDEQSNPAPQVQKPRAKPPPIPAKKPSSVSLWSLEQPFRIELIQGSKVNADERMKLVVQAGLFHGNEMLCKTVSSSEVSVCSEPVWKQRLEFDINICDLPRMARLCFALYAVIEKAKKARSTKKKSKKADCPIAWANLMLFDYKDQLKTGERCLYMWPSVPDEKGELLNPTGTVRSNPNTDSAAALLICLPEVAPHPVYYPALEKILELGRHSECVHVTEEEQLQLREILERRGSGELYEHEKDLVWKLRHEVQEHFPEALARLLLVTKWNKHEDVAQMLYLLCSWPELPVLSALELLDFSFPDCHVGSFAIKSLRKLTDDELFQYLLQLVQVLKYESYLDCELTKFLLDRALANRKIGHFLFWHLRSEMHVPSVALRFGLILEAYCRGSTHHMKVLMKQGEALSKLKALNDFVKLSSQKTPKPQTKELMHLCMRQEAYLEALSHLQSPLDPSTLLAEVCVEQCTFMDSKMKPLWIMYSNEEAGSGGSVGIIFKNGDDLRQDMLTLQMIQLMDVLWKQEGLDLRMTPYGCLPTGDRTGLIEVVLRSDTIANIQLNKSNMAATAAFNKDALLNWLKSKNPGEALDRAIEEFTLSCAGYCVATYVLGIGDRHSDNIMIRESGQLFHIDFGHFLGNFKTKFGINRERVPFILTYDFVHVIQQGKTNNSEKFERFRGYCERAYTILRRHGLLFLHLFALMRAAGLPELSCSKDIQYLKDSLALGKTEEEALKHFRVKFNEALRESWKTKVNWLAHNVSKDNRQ
# Assay: Inhibition of PI3Kdelta (unknown origin) using PIP2 as substrate incubated for 1 hr in presence of ATP by ADP-Glo assay
# Conditions: not given
row,IC50 [nM],SMILES
1,2.1,C[C@H](Nc1nc(N)nc(N)c1C#N)c1nn(-c2cccc(S(C)(=O)=O)c2)c2cc(Cl)ccc12

# Test system: Hep 3B2
# Assay: Antiproliferative activity against human Hep3B cells assessed as inhibition of cell growth incubated for 72 hrs by SRB assay
# Assay type: functional, cell-based
# Conditions: not given
row,SMILES,IC50 [nM]
1,C[C@H](Nc1nc(N)nc(N)c1C#N)c1nn(-c2cccc(S(C)(=O)=O)c2)c2cc(Cl)ccc12,5110
2,C[C@H](Nc1nc(N)nc(N)c1C#N)c1nn(-c2cccnc2)c2cc(Cl)ccc12,1090

# Test system: Bel-7402
# Assay: Induction of apoptosis in human Bel-7402 cells xenografted in Balb/c (nu/nu) mouse assessed as decrease in phosphorylation of Akt at serine 473 residue at 20 to 40 mg/kg, po daily after 14 days by western blot analysis
# Assay type: functional, organism-based
# Conditions: dose 20-40 mg/kg, time 14.0 day
row,SMILES,Activity
1,C[C@H](Nc1nc(N)nc(N)c1C#N)c1nn(-c2cccnc2)c2cc(Cl)ccc12,Active

# Test system: Bel-7402
# Assay: Induction of apoptosis in human Bel-7402 cells xenografted in Balb/c (nu/nu) mouse assessed as increase in apoptotic cells at 20 to 40 mg/kg, po daily after 14 days by DAPI staining based assay
# Assay type: functional, organism-based
# Conditions: dose 20-40 mg/kg, time 14.0 day
row,SMILES,Activity
1,C[C@H](Nc1nc(N)nc(N)c1C#N)c1nn(-c2cccnc2)c2cc(Cl)ccc12,Active

# Test system: Bel-7402
# Assay: cells
# Conditions: Homo sapiens, Bel-7402, 72 h, read-out: INH
row,SMILES,inhibition at 10 µM [%]
1,C[C@H](Nc1nc(N)nc(N)c1C#N)c1nn(-c2cccc(S(C)(=O)=O)c2)c2cc(Cl)ccc12,47

# Test system: Bel-7402
# Assay: Induction of apoptosis in human Bel-7402 cells xenografted in Balb/c (nu/nu) mouse assessed as increase in expression of cleaved caspase-3 at 20 to 40 mg/kg, po daily after 14 days by western blot analysis
# Assay type: functional, organism-based
# Conditions: dose 20-40 mg/kg, time 14.0 day
row,SMILES,Activity
1,C[C@H](Nc1nc(N)nc(N)c1C#N)c1nn(-c2cccnc2)c2cc(Cl)ccc12,Active

# Test system: HepG2
# Assay: cells
# Conditions: Homo sapiens, HepG2, 72 h, read-out: INH
row,SMILES,inhibition at 10 µM [%]
1,C[C@H](Nc1nc(N)nc(N)c1C#N)c1nn(-c2cccc(S(C)(=O)=O)c2)c2cc(Cl)ccc12,56

# Test system: Bel-7402
# Assay: Antiproliferative activity against human Bel-7402 cells assessed as inhibition of cell growth incubated for 72 hrs by SRB assay
# Assay type: functional, cell-based
# Conditions: Bel-7402, 72 h
row,IC50 [nM],SMILES
1,4460,C[C@H](Nc1nc(N)nc(N)c1C#N)c1nn(-c2cccc(S(C)(=O)=O)c2)c2cc(Cl)ccc12
2,1360,C[C@H](Nc1nc(N)nc(N)c1C#N)c1nn(-c2cccnc2)c2cc(Cl)ccc12

# Test system: HepG2
# Assay: Induction of apoptosis in human HepG2 cells assessed as increase in expression of cleaved PARP at 1.5625 to 50 uM incubated for 24 hrs by Western blotting analysis
# Assay type: functional, cell-based
# Conditions: dose 1.5625-50 µM, DDE = dose-dependent effect
row,SMILES,Activity
1,C[C@H](Nc1nc(N)nc(N)c1C#N)c1nn(-c2cccnc2)c2cc(Cl)ccc12,Dde

# Test system: HepG2
# Assay: Induction of apoptosis in human HepG2 cells assessed as decrease in EGf dependent Akt phosphorylation at threonine 308 residue at 0.3 to 10 uM measured after 24 hrs by western blotting analysis
# Assay type: functional, cell-based
# Conditions: dose 0.3-10 µM, DDE = dose-dependent effect
row,SMILES,Activity
1,C[C@H](Nc1nc(N)nc(N)c1C#N)c1nn(-c2cccnc2)c2cc(Cl)ccc12,Dde

# Target: Phosphatidylinositol 4,5-bisphosphate 3-kinase catalytic subunit gamma isoform (Homo sapiens, UniProt P48736)
# Assay: Inhibition of PI3Kgamma (unknown origin) using PIP2 as substrate incubated for 1 hr in presence of ATP by ADP-Glo assay
# Conditions: not given
# Sequence of Phosphatidylinositol 4,5-bisphosphate 3-kinase catalytic subunit gamma isoform (P48736 whole entry, canonical isoform): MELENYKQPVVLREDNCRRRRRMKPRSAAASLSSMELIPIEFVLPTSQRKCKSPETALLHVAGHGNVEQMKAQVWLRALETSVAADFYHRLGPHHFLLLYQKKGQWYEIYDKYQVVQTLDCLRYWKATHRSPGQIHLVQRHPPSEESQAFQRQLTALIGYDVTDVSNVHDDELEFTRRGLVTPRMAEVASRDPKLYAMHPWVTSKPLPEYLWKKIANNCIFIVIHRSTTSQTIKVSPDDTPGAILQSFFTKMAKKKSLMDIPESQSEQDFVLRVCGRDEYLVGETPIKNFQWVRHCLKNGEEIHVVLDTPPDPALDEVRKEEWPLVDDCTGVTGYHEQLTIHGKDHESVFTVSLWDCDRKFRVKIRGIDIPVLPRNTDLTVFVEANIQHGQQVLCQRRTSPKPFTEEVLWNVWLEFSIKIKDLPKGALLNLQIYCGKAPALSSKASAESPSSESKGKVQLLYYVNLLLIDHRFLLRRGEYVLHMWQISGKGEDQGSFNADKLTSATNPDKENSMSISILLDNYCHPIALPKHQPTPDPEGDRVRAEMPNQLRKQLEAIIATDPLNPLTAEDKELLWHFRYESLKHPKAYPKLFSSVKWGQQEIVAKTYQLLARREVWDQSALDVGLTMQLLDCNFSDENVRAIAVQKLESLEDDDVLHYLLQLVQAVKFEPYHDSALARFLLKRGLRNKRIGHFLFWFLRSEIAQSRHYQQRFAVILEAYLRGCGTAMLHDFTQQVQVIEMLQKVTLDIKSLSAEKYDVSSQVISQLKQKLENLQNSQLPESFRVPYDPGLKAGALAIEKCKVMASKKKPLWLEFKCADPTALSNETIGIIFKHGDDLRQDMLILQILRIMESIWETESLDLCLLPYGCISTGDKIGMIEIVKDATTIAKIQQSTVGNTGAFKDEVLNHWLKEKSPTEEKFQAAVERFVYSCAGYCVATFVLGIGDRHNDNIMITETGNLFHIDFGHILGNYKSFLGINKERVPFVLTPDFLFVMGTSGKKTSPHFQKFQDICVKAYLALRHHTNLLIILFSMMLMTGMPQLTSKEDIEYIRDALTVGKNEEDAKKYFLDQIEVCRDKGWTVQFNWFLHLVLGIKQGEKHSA
row,IC50 [nM],SMILES
1,> 1000,C[C@H](Nc1nc(N)nc(N)c1C#N)c1nn(-c2cccc(S(C)(=O)=O)c2)c2cc(Cl)ccc12
2,275,C[C@H](Nc1nc(N)nc(N)c1C#N)c1nn(-c2cccnc2)c2cc(Cl)ccc12

# Test system: Bel-7402
# Assay: Induction of apoptosis in human Bel-7402 cells xenografted in Balb/c (nu/nu) mouse assessed as increase in expression of cleaved PARP at 20 to 40 mg/kg, po daily after 14 days by western blot analysis
# Assay type: functional, organism-based
# Conditions: dose 20-40 mg/kg, time 14.0 day
row,SMILES,Activity
1,C[C@H](Nc1nc(N)nc(N)c1C#N)c1nn(-c2cccnc2)c2cc(Cl)ccc12,Active

# Test system: not listed separately
# Assay: Toxicity in Balb/c (nu/nu) mouse xenografted with human Bel-7402 cells assessed as change in body weight at 20 to 40 mg/kg, po daily after 14 days
# Assay type: organism-based
# Conditions: in vivo, 336 h, dose 20-40 mg/kg, time 14 day
row,SMILES,Activity
1,C[C@H](Nc1nc(N)nc(N)c1C#N)c1nn(-c2cccnc2)c2cc(Cl)ccc12,Non-Toxic

# Test system: Bel-7402
# Assay: Induction of apoptosis in human Bel-7402 cells assessed as increase in expression of cleaved caspase-3 at 1.5625 to 50 uM incubated for 24 hrs by Western blotting analysis
# Assay type: functional, cell-based
# Conditions: dose 1.5625-50 µM, DDE = dose-dependent effect
row,SMILES,Activity
1,C[C@H](Nc1nc(N)nc(N)c1C#N)c1nn(-c2cccnc2)c2cc(Cl)ccc12,Dde

# Test system: HepG2
# Assay: Induction of apoptosis in human HepG2 cells assessed as decrease in EGf dependent Akt phosphorylation at serine 473 residue at 0.3 to 10 uM measured after 24 hrs by western blotting analysis
# Assay type: functional, cell-based
# Conditions: dose 0.3-10 µM, DDE = dose-dependent effect
row,SMILES,Activity
1,C[C@H](Nc1nc(N)nc(N)c1C#N)c1nn(-c2cccnc2)c2cc(Cl)ccc12,Dde

# Test system: Bel-7402
# Assay: Induction of apoptosis in human Bel-7402 cells assessed as increase in expression of cleaved PARP at 1.5625 to 50 uM incubated for 24 hrs by Western blotting analysis
# Assay type: functional, cell-based
# Conditions: dose 1.5625-50 µM, DDE = dose-dependent effect
row,SMILES,Activity
1,C[C@H](Nc1nc(N)nc(N)c1C#N)c1nn(-c2cccnc2)c2cc(Cl)ccc12,Dde

# Test system: Bel-7402
# Assay: Induction of apoptosis in human Bel-7402 cells assessed as increase in apoptotic cells at 12.5 to 50 uM for 24 hrs by TUNEL staining method
# Assay type: functional, cell-based
# Conditions: dose 12.5-50 µM
row,SMILES,Activity
1,C[C@H](Nc1nc(N)nc(N)c1C#N)c1nn(-c2cccnc2)c2cc(Cl)ccc12,Active

# Test system: Bel-7402
# Assay: Induction of apoptosis in human Bel-7402 cells assessed as decrease in EGf dependent Akt phosphorylation at serine 473 residue at 0.3 to 10 uM measured after 24 hrs by western blotting analysis
# Assay type: functional, cell-based
# Conditions: dose 0.3-10 µM, DDE = dose-dependent effect
row,SMILES,Activity
1,C[C@H](Nc1nc(N)nc(N)c1C#N)c1nn(-c2cccnc2)c2cc(Cl)ccc12,Dde

# Test system: HepG2
# Assay: cells
# Conditions: Homo sapiens, HepG2, 72 h
# Description: Antiproliferative activity against human HepG2 cells assessed as inhibition of cell growth incubated for 72 hrs by SRB assay
row,IC50 [nM],SMILES
1,1880,C[C@H](Nc1nc(N)nc(N)c1C#N)c1nn(-c2cccc(S(C)(=O)=O)c2)c2cc(Cl)ccc12
2,530,C[C@H](Nc1nc(N)nc(N)c1C#N)c1nn(-c2cccnc2)c2cc(Cl)ccc12
